“And” between values parts separate entries of the source, which are not always exact repeats. Identical values can stand only once. ± gives the expanded uncertainty stated by the source.
What was measured:
[1] = Liquid, Ebulliometric method (Recirculating still)
[2] = refractive index (Na D-line) (dimensionless); conditions: 298.15 K; 101.33 kPa; Liquid; Standard Abbe refractometry

vapor or sublimation pressure ([1]; 323.15 K) | vapor or sublimation pressure ([1]; 333.15 K) | vapor or sublimation pressure ([1]; 335.85 K) | vapor or sublimation pressure ([1]; 343.15 K) | vapor or sublimation pressure ([1]; 353.15 K) | vapor or sublimation pressure ([1]; 354.65 K) | vapor or sublimation pressure ([1]; 363.15 K) | vapor or sublimation pressure ([1]; 366.95 K) | vapor or sublimation pressure ([1]; 374.45 K) | Normal boiling temperature [1] | refractive index [2] | vapor or sublimation pressure ([1]; 325.05 K) | vapor or sublimation pressure ([1]; 340.05 K) | vapor or sublimation pressure ([1]; 349.75 K) | vapor or sublimation pressure ([1]; 355.55 K) | Structure (SMILES)
 | 12.5 ± 0.34 kPa |  | 20.35 ± 0.4 kPa | 32.25 ± 0.55 kPa and 32.19 ± 0.5 kPa |  |  |  |  | 107.90 ± 0.22 °C | 1.3939 ± 0.0012 |  |  |  |  | CC(C)CO [2-methyl-1-propanol]
24.4 ± 0.48 kPa | 39.06 ± 0.62 kPa |  | 60.93 ± 0.89 kPa | 92.26 ± 1.2 kPa |  |  |  |  | 82.40 ± 0.22 °C | 1.3823 ± 0.0012 | 26.66 kPa | 53.33 kPa | 79.99 kPa | 101.33 kPa | CC(C)(C)O [2-methylpropan-2-ol]
 |  |  | 29.86 ± 0.59 kPa |  |  | 70.25 ± 0.9 kPa |  |  | 99.50 ± 0.22 °C | 1.3955 ± 0.0012 |  |  |  |  | CCC(C)O (stereo not given) [butan-2-ol]

Structure (SMILES) | vapor or sublimation pressure ([1]; 323.15 K) | vapor or sublimation pressure ([1]; 333.15 K) | vapor or sublimation pressure ([1]; 335.85 K) | vapor or sublimation pressure ([1]; 343.15 K) | vapor or sublimation pressure ([1]; 353.15 K) | vapor or sublimation pressure ([1]; 354.65 K) | vapor or sublimation pressure ([1]; 363.15 K) | vapor or sublimation pressure ([1]; 366.95 K) | vapor or sublimation pressure ([1]; 374.45 K) | Normal boiling temperature [1] | refractive index [2] | vapor or sublimation pressure ([1]; 325.05 K) | vapor or sublimation pressure ([1]; 340.05 K) | vapor or sublimation pressure ([1]; 349.75 K) | vapor or sublimation pressure ([1]; 355.55 K)
C1COCCO1 [1,4-dioxane] | 15.93 ± 0.36 kPa | 23.94 ± 0.44 kPa and 24 ± 0.42 kPa | 26.66 ± 0.44 kPa | 35.19 ± 0.59 kPa and 35.11 ± 0.54 kPa and 35.2 ± 0.54 kPa | 50.78 ± 0.8 kPa and 50.41 ± 0.68 kPa and 50.53 ± 0.68 kPa | 53.33 ± 0.8 kPa | 70.91 ± 0.88 kPa | 79.99 ± 1 kPa | 101.33 ± 1.1 kPa | 101.30 ± 0.22 °C | 1.4205 ± 0.0012 |  |  |  | 

Reference: the NIST ThermoML archive (doi:10.1016/j.fluid.2007.11.002)
